The target in one data set is JAK2 (Homo sapiens (Human), UniProt O60674). Put plainly: JAK kinase assay (HTRF), JAK2. Type of data set: biochemical. To be noted: catalytic domain, ATP at Km (4 μM). In a few lines: (§1)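 Catalytic-domain human JAK1 (GST-tagged, aa 850-1154) or His-tagged JAK2, baculovirus-expressed, phosphorylated 1 µM biotinylated TK peptide at Km ATP (JAK1 7 µM, 10 mM MgCl2, 50 nM SEB; JAK2 4 µM, 5 mM MgCl2) in pH 7.0 Hepes, 20-30 min RT. EDTA stop; overnight streptavidin-XL665/cryptate HTRF read.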
JAK2, sequence (O60674 849-1124): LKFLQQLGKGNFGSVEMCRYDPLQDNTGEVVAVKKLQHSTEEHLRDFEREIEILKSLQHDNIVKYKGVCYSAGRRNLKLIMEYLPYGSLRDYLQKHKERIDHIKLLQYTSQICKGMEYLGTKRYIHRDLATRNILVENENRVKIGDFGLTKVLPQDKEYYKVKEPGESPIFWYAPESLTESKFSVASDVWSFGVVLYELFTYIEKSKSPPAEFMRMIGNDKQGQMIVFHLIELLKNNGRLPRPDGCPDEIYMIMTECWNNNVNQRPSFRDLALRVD
(Time-resolved FRET reads energy transfer from a long-lived donor to a nearby acceptor.)

The next data set addresses TYK2 (Homo sapiens (Human), UniProt P29597). The data set is described as follows: JAK kinase assay (HTRF), TYK2. To be noted: catalytic domain, ATP at Km (13 μM). Type of data set: biochemical. In a few lines: (§2)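 Catalytic-domain human kinases, GST-tagged TYK2 (aa 871-1187) and His-tagged JAK3, phosphorylate 1 μM TK Substrate-Biotin for 20-30 min at RT in 50 mM Hepes pH 7.0, 5 mM MgCl2, ATP at Km (TYK2 13 μM with 50 nM SEB; JAK3 2 μM). Phosphorylation detected by HTRF.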

Data set [1] is described as follows: in vitro metabolic stability in human liver microsomes. The following applies: human, liver microsomes, 0.5 μM compound, 0.5 mg/mL microsomes, NADPH, 40 min, 37° C.; read-out: Human liver microsome Clapp (apparent intrinsic clearance). Format: in vitro ADME. As to the method: To assess the in vitro metabolic stability, the compounds (0.5 μM) were incubated in duplicates with human liver microsomes (0.5 mg/mL) in phosphate buffer and NADPH, in 96-well plates for 40 min (37° C.), using a liquid handling robot (Hamilton Microlab Star). Sample aliquots were taken at 0, 5, 10, 20 and 40 min, and dispensed into cold acetonitrile, in order to stop the reactions. The plates were centrifuged for 30 minutes before the samples were analyzed using liquid chromatography coupled to a time-of-flight mass spectrometer (AB Sciex API5600). The compound depletion over time was used to estimate the elimination rate constant, from which the apparent intrinsic clearance, Clapp, was calculated and the values are listed in Table 2.
A general note: Liver microsomes are vesicles of endoplasmic reticulum, rich in cytochrome P450 enzymes.

The target of another data set is JAK1 (Homo sapiens (Human), UniProt P23458). The data set is described as follows: JAK kinase assay (HTRF), JAK1. To be noted: catalytic domain, ATP at Km (7 μM). Format: biochemical. In a few lines:
as §1

A further data set has as its target JAK3 (Homo sapiens (Human), UniProt P52333). The data set is described as follows: JAK kinase assay (HTRF), JAK3. Type of data set: biochemical. The following applies: catalytic domain, ATP at Km (2 μM). In a few lines: as §2

Consider eight compounds from patent US10799507B2, “5-(7H-pyrrolo[2,3-d]pyrimidin-4-yl)-5-azaspiro[2.5]octane-8-carboxylic acid derivatives as novel JAK kinase inhibitors” (LEO Pharma A/S, priority 2017, dated 2020).

In general, EC50 refers to the concentration needed to bring the measured effect to its halfway point. A lower EC50 goes with a more potent agent.

Structures are written as SMILES.

JAK1, sequence (P23458 850-1154): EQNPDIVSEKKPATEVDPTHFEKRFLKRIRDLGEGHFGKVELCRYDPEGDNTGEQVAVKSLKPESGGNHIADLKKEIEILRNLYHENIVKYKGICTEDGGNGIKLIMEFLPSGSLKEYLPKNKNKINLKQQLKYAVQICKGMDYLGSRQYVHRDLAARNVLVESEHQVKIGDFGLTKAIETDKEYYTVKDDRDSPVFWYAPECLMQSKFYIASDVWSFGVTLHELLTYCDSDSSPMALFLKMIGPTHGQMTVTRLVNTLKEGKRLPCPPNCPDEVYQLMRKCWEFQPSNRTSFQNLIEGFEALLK
JAK3, sequence (P52333 822-1111): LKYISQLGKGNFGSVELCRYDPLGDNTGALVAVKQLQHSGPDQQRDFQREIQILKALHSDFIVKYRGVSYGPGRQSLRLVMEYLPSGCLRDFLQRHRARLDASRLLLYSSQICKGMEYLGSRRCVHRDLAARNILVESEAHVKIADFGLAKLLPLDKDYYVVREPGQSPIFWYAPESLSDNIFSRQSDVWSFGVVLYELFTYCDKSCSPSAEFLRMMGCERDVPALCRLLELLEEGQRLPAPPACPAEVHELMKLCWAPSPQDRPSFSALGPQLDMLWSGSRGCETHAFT
TYK2, sequence (P29597 871-1187): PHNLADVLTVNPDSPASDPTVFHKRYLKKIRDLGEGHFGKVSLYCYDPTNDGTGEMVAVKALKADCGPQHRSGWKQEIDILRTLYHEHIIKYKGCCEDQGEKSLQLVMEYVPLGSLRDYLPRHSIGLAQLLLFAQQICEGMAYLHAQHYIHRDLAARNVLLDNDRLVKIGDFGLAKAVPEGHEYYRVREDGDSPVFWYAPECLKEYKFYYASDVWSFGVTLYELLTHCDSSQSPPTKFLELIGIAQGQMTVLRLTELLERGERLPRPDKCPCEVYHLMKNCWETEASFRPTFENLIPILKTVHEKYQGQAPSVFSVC

Turning to `C[C@H](NC(=O)[C@H]1CCN(c2ncnc3[nH]ccc23)CC12CC2)c1ccc(C#N)cc1F` [Example 20, (8S)-N-[(1S)-1-(4-cyano-2-fluoro-phenyl)ethyl]-5-(7H-pyrrolo[2,3-d]pyrimidin-4-yl)-5-azaspiro[2.5]octane-8-carboxamide], the EC50 on JAK2 was 3.1 nM; at TYK2 it was 51.3 nM; on JAK1, 1.1 nM; at JAK3 it was 17.6 nM. The CLint scaled at 0.5 μM in data set [1] was found to be 9.66 L/h/kg.
The like results for `C[C@H](NC(=O)[C@H]1CCN(c2ncnc3[nH]ccc23)CC12CC2)[C@@H](O)C1CCCC1` [Example 5, (8S)-N-[(1S,2S)-2-cyclopentyl-2-hydroxy-1-methyl-ethyl]-5-(7H-pyrrolo[2,3-d]pyrimidin-4-yl)-5-azaspiro[2.5]octane-8-carboxamide] were, in that order, 1.1 nM, 6.3 nM, 0.6 nM, 2.3 nM and above 12 L/h/kg.
The like results for `C[C@@](CO)(NC(=O)[C@H]1CCN(c2ncnc3[nH]ccc23)CC12CC2)c1ccc(C#N)cn1` [Example 57, (8S)-N-[(1R)-1-(5-cyano-2-pyridyl)-2-hydroxy-1-methyl-ethyl]-5-(7H-pyrrolo[2,3-d]pyrimidin-4-yl)-5-azaspiro[2.5]octane-8-carboxamide] were, in that order, 9 nM, 193 nM, 4.1 nM, 21.3 nM and 2.34 L/h/kg.
The like results for `O=C(NCC1(O)CCC1)[C@H]1CCN(c2ncnc3[nH]ccc23)CC12CC2` [Example 68, (8S)-N-[(1-hydroxycyclobutyl)methyl]-5-(7H-pyrrolo[2,3-d]pyrimidin-4-yl)-5-azaspiro[2.5]octane-8-carboxamide] were, in that order, 11.8 nM, 78.1 nM, 5.1 nM, 29.6 nM and 1.38 L/h/kg.
Regarding `C[C@H](NC(=O)C1CCN(c2ncnc3[nH]ccc23)CC12CC2)c1cccc(C#N)c1` (stereo partly drawn) [Example 86, N-[(1S)-1-(3-cyanophenyl)ethyl]-5-(7H-pyrrolo[2,3-d]pyrimidin-4-yl)-5-azaspiro[2.5]octane-8-carboxamide], the concentration for a half-maximal effect (EC50) on JAK2 came to 11.3 nM; on TYK2 it was 47.7 nM; at JAK1, 7.1 nM; on JAK3 it was 38 nM. In addition, in data set [1], the CLint scaled at 0.5 μM is above 12 L/h/kg.
Taken in the same sequence, the figures for `O=C(NC[C@@H](O)C1CCCCC1)[C@H]1CCN(c2ncnc3[nH]ccc23)CC12CC2` [Example 4, (8S)-N-[(2S)-2-cyclohexyl-2-hydroxy-ethyl]-5-(7H-pyrrolo[2,3-d]pyrimidin-4-yl)-5-azaspiro[2.5]octane-8-carboxamide] were 1.2 nM, 4 nM, 0.5 nM, 3.4 nM and above 12 L/h/kg.
The like results for `O=C(NC[C@@H](O)c1ccc(F)cn1)[C@H]1CCN(c2ncnc3[nH]ccc23)CC12CC2` [Example 12, (8S)-N-[(2R)-2-(5-fluoro-2-pyridyl)-2-hydroxy-ethyl]-5-(7H-pyrrolo[2,3-d]pyrimidin-4-yl)-5-azaspiro[2.5]octane-8-carboxamide] were, in that order, 4 nM, 13.9 nM, 0.8 nM, 26.5 nM and 8.58 L/h/kg.
Take `O=C(OCC1CC(F)(F)C1)C1CCN(c2ncnc3[nH]ccc23)CC12CC2` (stereo not shown) [Example 153, (3,3-difluorocyclobutyl)methyl 5-(7H-pyrrolo[2,3-d]pyrimidin-4-yl)-5-azaspiro[2.5]octane-8-carboxylate]: the concentration for a half-maximal effect (EC50) at JAK2 was 3.2 nM; at TYK2 it was 68 nM; on JAK1, 2.3 nM; at JAK3, 8.9 nM. Also, the CLint scaled at 0.5 μM in data set [1] stood at 9.6 L/h/kg.
